Data published in patent US20170152226A1, “FUNCTIONALISED AND SUBSTITUTED INDOLES AS ANTI-CANCER AGENTS” (Novogen Ltd., priority 2014, published 2017).

What was measured:
A549 = assay: Anti-proliferative activity, cell-titre luminescent viability assay; format: cell-based; settings: Homo sapiens, A549, 72 h, 0.03, 0.3, 3 and 30 μM, linear regression of semi-log plots, read-out: IC50 Lung (NSLC) A549
Outline: (§1)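 Cells were seeded at pre-determined densities, cultured 24 hours at 37° C/5% CO2, then exposed 72 hours to compound at 0.03, 0.3, 3 and 30 μM or at 0.1, 0.3, 1, 3, 10 and 30 μM. Viability was read by cell-titre luminescence after 30 min, normalized to untreated control, and IC50 or EC50 derived.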

CaCo2 = assay: as above; format: cell-based; settings: Homo sapiens, Caco-2, 72 h, 0.03, 0.3, 3 and 30 μM, linear regression of semi-log plots, read-out: IC50 Colorectal CaCo2
Outline: as §1

DU145 = assay: as above; format: cell-based; settings: Homo sapiens, DU-145, 72 h, 0.03, 0.3, 3 and 30 μM, linear regression of semi-log plots, read-out: IC50 Prostate DU145
Outline: as §1

MDA-MB-231 = assay: as above; format: cell-based; settings: Homo sapiens, MDA-MB-231, 72 h, 0.03, 0.3, 3 and 30 μM, linear regression of semi-log plots, read-out: IC50 Breast MDA-MB-231
Outline: as §1

PC3 = assay: as above; format: cell-based; settings: Homo sapiens, PC-3, 72 h, 0.03, 0.3, 3 and 30 μM, linear regression of semi-log plots, read-out: IC50 Prostate PC3
Outline: as §1

SK-N-SH = assay: as above; format: cell-based; settings: Homo sapiens, SK-N-SH, 72 h, 0.03, 0.3, 3 and 30 μM, linear regression of semi-log plots, read-out: IC50 Neuroblastoma SK-N-SH
Outline: as §1

IFN-γ = assay: Inhibition of cytokine release from PBMCs (HTRF); format: cell-based; settings: PBMC, human PBMCs, PMA and ionomycin stimulated
Description: (§2) The ability of compounds 3507, 3520, 3534 and 3538 to inhibit the release of cytokines TNF-α, IFN-γ, IL-6, IL-21, IL-17A and IL-23 was evaluated in vitro (Tables 4 and 5). Briefly, human peripheral blood mononuclear cells (PBMCs) were isolated from human peripheral blood by Histopaque density gradient centrifugation. The freshly isolated PBMCs were seeded at 50,000 cells/well in a 96-well half area plate. PBMCs were dosed with the test compounds (at 10 μM, 1 μM and 0.1 μM) and then incubated at 37° C. and 5% CO2 for 2 hours. To stimulate release of the cytokines IFN-γ, IL-21, IL-17A and IL-23, the PBMCs were treated with 50 ng/mL of phorbol 12-myristate 13-acetate (PMA) and 1 μg/mL of ionomycin and to stimulate the release of TNF-α and IL-6, PBMCs were treated with 100 ng/mL of lipopolysaccharide (LPS) from gram-negative bacteria. The PBMCs were then incubated at 37° C. and 5% CO2 for a further 6 hours and the cell supernatant was collected and a Homogenous Time Resolved Fluorescence (HTRF) assay was carried out following the manufacturer's instructions. Cytokine release from the PBMCs was captured using a Perkin Elmer ENVISION 2104 microplate reader set at 615 nm and 665 nm respectively.

IL-17A = assay: Inhibition of cytokine release from PBMCs (HTRF); format: cell-based; settings: PBMC, human PBMCs, PMA and ionomycin stimulated
Description: as §2

IL-21 = assay: Inhibition of cytokine release from PBMCs (HTRF); format: cell-based; settings: PBMC, human PBMCs, PMA and ionomycin stimulated
Description: as §2

IL-23 = assay: Inhibition of cytokine release from PBMCs (HTRF); format: cell-based; settings: PBMC, human PBMCs, PMA and ionomycin stimulated
Description: as §2

IL-6 = assay: Inhibition of cytokine release from PBMCs (HTRF); format: cell-based; settings: PBMC, human PBMCs, LPS stimulated
Description: as §2

TNF-α = assay: Inhibition of cytokine release from PBMCs (HTRF); format: cell-based; settings: PBMC, human PBMCs, LPS stimulated
Description: as §2

A375 tumours = assay: Human melanoma (A375) xenograft model; format: in vivo; settings: 60 mg/kg intravenously twice a week
Description: FIG. 5: Compound 3507/30% w/v Dexolve-7 was administered IV 2×/week at 60 mg/kg for 14 days in a flank xenograft model of melanoma (A375). Tumour volume was measured every 2-3 days. ** p<0.01.
The in vivo efficacy of 3507 was also evaluated in a human melanoma (A375) xenograft model. A375 tumours were established in female Foxn-1 nu/nu athymic mice by injecting approximately five million cells subcutaneously in the right flank region of the animal. When the tumours reached 130-150 mm^3 the animals were randomized into four groups, (n=8 or 12 animals/group) so that the average tumour volume of all the groups was same. Group 1 received vehicle (30% w/v Dexolve-7 in sterile water) twice a week intravenously, and Group 2 was dosed with 3507/Dexolve-7 at 60 mg/kg, twice a week intravenously. Tumours and body weight was measured two to three times in a week. In addition, throughout the study period mice were monitored daily for clinical condition.

Cc1c(C)n(CCCN2CCN(C)CC2)c2ccc(Oc3cccc(C(=O)N4CCN(CCc5ccc(F)cc5)CC4)c3)cc12 [Compound 3507, (3-((2,3-dimethyl-1-(3-(4-methylpiperazin-1-yl)propyl)-1H-indol-5-yl)oxy)phenyl)(4-(4-fluorophenethyl)piperazin-1-yl)methanone]
IC50 (A549): 1200 nM | IC50 (CaCo2): 2500 nM | IC50 (DU145): 1300 nM | IC50 (MDA-MB-231): 1400 nM | IC50 (PC3): 1200 nM | IC50 (SK-N-SH): 1400 nM | inhibition at 0.1 µM (IFN-γ; 0.1 μM): 16% | inhibition at 1 µM (IFN-γ; 1 μM): 42% | inhibition at 10 µM (IFN-γ; 10 μM): 77% | inhibition at 0.1 µM (IL-17A; 0.1 μM): 2% | inhibition at 1 µM (IL-17A; 1 μM): 4% | inhibition at 10 µM (IL-17A; 10 μM): 13% | inhibition at 0.1 µM (IL-21; 0.1 μM): -6% | inhibition at 1 µM (IL-21; 1 μM): 5% | inhibition at 10 µM (IL-21; 10 μM): 19% | inhibition at 0.1 µM (IL-23; 0.1 μM): -7% | inhibition at 1 µM (IL-23; 1 μM): 0% | inhibition at 10 µM (IL-23; 10 μM): 20% | inhibition at 0.1 µM (IL-6; 0.1 μM): -9% | inhibition at 1 µM (IL-6; 1 μM): 21% | inhibition at 10 µM (IL-6; 10 μM): 68% | inhibition at 0.1 µM (TNF-α; 0.1 μM): 52% | inhibition at 1 µM (TNF-α; 1 μM): 68% | inhibition at 10 µM (TNF-α; 10 μM): 90% | tolerability (A375 tumours): well tolerated | reduction of melanoma tumour growth compared to vehicle control (A375 tumours; after 14 days treatment): ~60% | body weights (A375 tumours; throughout the study period): comparable to the control group
